Assay results taken from paper PMC4266920, “Exploring the correlation between the sequence composition of the nucleotide binding G5 loop of the FeoB GTPase domain (NFeoB) and intrinsic rate of GDP release” (Bioscience Reports, 2014).

What was measured:
Format in all cases: binding
[1] = target: T1, EcNFeoB (GTPase domain of Escherichia coli FeoB) (Escherichia coli, UniProt P33650, R154A); experiment: stopped-flow fluorescence, koff/kon from kobs versus protein concentration; conditions: 20 mM Tris pH 8.0, 100 mM NaCl, 100 mM MgCl2, 20 °C; labelled compound (mant-GMPPNP; table heading prints GMPPNP)
T1 construct: soluble N-terminal GTPase domain, residues 1-270; GST fusion (pGEX-4T-1) in E. coli BL21(DE3), GST removed by thrombin, size exclusion; an alternate S150A-TEV construct (TEV-cleaved) was also made
T1 sequence (P33650 1-270 R154A): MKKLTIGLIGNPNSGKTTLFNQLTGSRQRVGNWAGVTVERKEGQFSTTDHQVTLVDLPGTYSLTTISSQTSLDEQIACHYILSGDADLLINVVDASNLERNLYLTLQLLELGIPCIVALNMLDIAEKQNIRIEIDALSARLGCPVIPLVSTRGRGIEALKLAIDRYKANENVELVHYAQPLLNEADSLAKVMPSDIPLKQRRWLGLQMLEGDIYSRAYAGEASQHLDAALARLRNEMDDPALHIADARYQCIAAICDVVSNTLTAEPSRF
Excerpt: (§1) stopped-flow fluorescence, koff/kon from kobs versus protein concentration on EcNFeoB (GTPase domain of Escherichia coli FeoB)

[2] = target: T2, EcNFeoB (GTPase domain of Escherichia coli FeoB) (Escherichia coli, UniProt P33650, T151A); experiment: as above; conditions: 20 mM Tris pH 8.0, 100 mM NaCl, 100 mM MgCl2, 20 °C; labelled compound (mant-GMPPNP; table heading prints GMPPNP)
T2 construct: soluble N-terminal GTPase domain, residues 1-270; GST fusion (pGEX-4T-1) in E. coli BL21(DE3), GST removed by thrombin, size exclusion; an alternate S150A-TEV construct (TEV-cleaved) was also made
T2 sequence (P33650 1-270 T151A): T1 sequence (P33650 1-270 R154A)
Excerpt: as §1

[3] = target: T3, EcNFeoB (GTPase domain of Escherichia coli FeoB) (Escherichia coli, UniProt P33650, R152A); experiment: as above; conditions: 20 mM Tris pH 8.0, 100 mM NaCl, 100 mM MgCl2, 20 °C; labelled compound (mant-GMPPNP; table heading prints GMPPNP)
T3 construct: soluble N-terminal GTPase domain, residues 1-270; GST fusion (pGEX-4T-1) in E. coli BL21(DE3), GST removed by thrombin, size exclusion; an alternate S150A-TEV construct (TEV-cleaved) was also made
T3 sequence (P33650 1-270 R152A): T1 sequence (P33650 1-270 R154A)
Excerpt: as §1

[4] = target: T4, EcNFeoB (GTPase domain of Escherichia coli FeoB) (Escherichia coli, UniProt P33650, G153A); experiment: as above; conditions: 20 mM Tris pH 8.0, 100 mM NaCl, 100 mM MgCl2, 20 °C; labelled compound (mant-GMPPNP; table heading prints GMPPNP)
T4 construct: soluble N-terminal GTPase domain, residues 1-270; GST fusion (pGEX-4T-1) in E. coli BL21(DE3), GST removed by thrombin, size exclusion; an alternate S150A-TEV construct (TEV-cleaved) was also made
T4 sequence (P33650 1-270 G153A): T1 sequence (P33650 1-270 R154A)
Excerpt: as §1

[5] = target: T1, EcNFeoB (GTPase domain of Escherichia coli FeoB); experiment: isothermal titration calorimetry, one-site model; conditions: read-out: Kd^** (μM) GDP
Excerpt: (§2) isothermal titration calorimetry, one-site model on EcNFeoB (GTPase domain of Escherichia coli FeoB)

[6] = target: T2, EcNFeoB (GTPase domain of Escherichia coli FeoB); experiment: isothermal titration calorimetry, one-site model; conditions: read-out: Kd^** (μM) GDP
Excerpt: as §2

[7] = target: T3, EcNFeoB (GTPase domain of Escherichia coli FeoB); experiment: isothermal titration calorimetry, one-site model; conditions: read-out: Kd^** (μM) GDP
Excerpt: as §2

[8] = target: T5, EcNFeoB (GTPase domain of Escherichia coli FeoB) (Escherichia coli, UniProt P33650, S150A); experiment: isothermal titration calorimetry, one-site model; conditions: read-out: Kd^** (μM) GDP
T5 construct: soluble N-terminal GTPase domain, residues 1-270; GST fusion (pGEX-4T-1) in E. coli BL21(DE3), GST removed by thrombin, size exclusion; an alternate S150A-TEV construct (TEV-cleaved) was also made
T5 sequence (P33650 1-270 S150A): T1 sequence (P33650 1-270 R154A)
Excerpt: as §2

[9] = target: T4, EcNFeoB (GTPase domain of Escherichia coli FeoB); experiment: isothermal titration calorimetry, one-site model; conditions: read-out: Kd^** (μM) GDP
Excerpt: as §2

With mant-GMPPNP the Kd [1] was 43 µM, the Kd [2] was 27 µM and the Kd [3] was 23 µM. For the same compound, the Kd [4] was 17 µM.
For `Nc1nc2c(ncn2[C@@H]2O[C@H](COP(=O)(O)OP(=O)(O)O)[C@@H](O)[C@H]2O)c(=O)[nH]1` [GDP], the Kd [5] was 9 ± 2 µM, the Kd [6] was 33 ± 4 µM and the Kd [7] was 8 ± 1 µM. For the same compound, the Kd [8] was 2 ± 0.3 µM and the Kd [9] was 11 ± 2 µM.
